Read-outs that look alike come from different tables or passages of the source.
Target: human recombinant GPR65 (Homo sapiens, UniProt Q8IYL9)
Experiment: Human GPR65 cAMP HTRF antagonist assay
Format: cell-based
Text: In one preferred embodiment, the compound prevents the increase in cytoplasmic cAMP levels expected following GPR65 activation at acidic pH. This prevention of cAMP accumulation in turn prevents downstream signalling through ICER, as described above. The “Human GPR65 cyclic adenosine monophosphate (cAMP) Homogeneous Time Resolved Fluorescence (HTRF) antagonist assay”, or simply “cAMP assay”, as described in the accompanying examples, can be used to measure the potency of GPR65 modulators, which is expressed as the concentration of compound required to reduce the increase in cAMP concentration upon GPR65 activation by 50% (i.e. an IC50).
Human GPR65 Cyclic Adenosine Monophosphate (cAMP) Homogeneous Time Resolved Fluorescence (HTRF) Antagonist Assay Procedure
IC50 data was obtained by the following procedure:
1321N1 human astrocytoma cells stably expressing human recombinant GPR65 (1321N1-hrGPR65 cells, EuroscreenFast) were cultured according to the vendor's instructions.
Compounds were tested for their ability to antagonise GPR65, through measuring the concentration of cytoplasmic cAMP following treatment of the cells at a pH of 7.2 to activate GPR65 signalling and addition of the compound to be tested. The extent to which the expected rise in cAMP concentration upon GPR65 activation was suppressed by the added compound is indicative of its potency. The assay was carried out according to EuroscreenFast assay Methodology as follows.
On the day of the assay, test compounds were added to 384-well, low volume, white microtiter plates by acoustic dispensing. KRH buffer (5 mM KCl, 1.25 mM MgSO4, 124 mM NaCl, 25 mM HEPES, 13.3 mM Glucose, 1.25 mM KH2PO4 and 1.45 mM CaCl2) was adjusted to pH 6.5, pH 7.6 and pH 8.4 by adding NaOH. 1321N1-hGPR65 cells were rapidly thawed and diluted in KRH, pH 7.6 prior to centrifugation at 300×g for 5 min and resuspension in assay buffer (KRH, pH 7.6, supplemented with 1 mM 3-isobutyl-1-methylxanthine (IBMX) and 200 μM ethylenediaminetetraacetic acid (EDTA)). Cells were added to assay plates at a density of 2,000 cells per well in a volume of 5 μl. Assay plates were briefly centrifuged at 100×g and then incubated at room temperature for 30 min. Cells were stimulated by the addition of 5 μL KRH, pH 6.5, to achieve an assay pH of 7.2, while control wells received 5 μl KRH, pH 8.4 to achieve an assay pH of 7.9. Assay plates were briefly centrifuged at 100×g and then incubated at room temperature for 30 min.
Accumulation of cAMP was detected by cAMP HTRF kit (Cisbio). d2-labeled cAMP and cryptate-labeled anti-cAMP antibody in Lysis and Detection Buffer (Cisbio) were added to assay plates, and the plates were incubated at room temperature for 1 h. HTRF measurements were performed using a Pherastar FSX instrument. Acceptor and donor emission signals were measured at 665 nm and 620 nm, respectively, and HTRF ratios were calculated as signal665 nm/signal620 nm×10^4. Data were normalised to high and low control values and fitted with 4-parameter logistic regression to determine hGPR65 IC50 values for the test compounds, which are shown in Table 1.

[1] = 1321N1-hrGPR65 cells, cAMP HTRF, assay pH 7.2, read-out: hGPR65 IC50 (Activity of selected compounds according to the invention)

Sequence of human recombinant GPR65 (Q8IYL9 whole entry): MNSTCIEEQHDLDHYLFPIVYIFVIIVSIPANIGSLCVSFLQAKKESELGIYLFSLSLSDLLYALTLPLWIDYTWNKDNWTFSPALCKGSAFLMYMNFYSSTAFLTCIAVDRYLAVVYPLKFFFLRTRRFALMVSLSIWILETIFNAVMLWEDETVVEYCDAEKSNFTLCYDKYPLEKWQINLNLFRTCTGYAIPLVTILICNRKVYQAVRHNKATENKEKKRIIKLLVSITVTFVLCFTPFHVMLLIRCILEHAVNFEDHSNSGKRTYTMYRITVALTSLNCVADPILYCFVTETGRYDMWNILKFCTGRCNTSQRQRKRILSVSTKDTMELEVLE

| SMILES | IC50 [µM] | IC50 [1] [µM] |
| --- | --- | --- |
| O=C(Nc1cc(Cl)c(-c2cnc(F)c(F)c2)cc1F)N1[C@H]2CC[C@@H]1c1n[nH]c(=O)cc1C2 [Compound 279, (6S,9R)-N-(5-Chloro-4-(5,6-difluoropyridin-3-yl)-2-fluorophenyl)-3-oxo-3,5,6,7,8,9-hexahydro-2H-6,9-epiminocyclohepta[c]pyridazine-10-carboxamide] | < 0.5 | – |
| COc1ccc(-c2cc(F)c(NC(=O)N3[C@H]4CC[C@@H]3c3c[nH]c(=O)cc3C4)cc2F)cn1 [Compound 246, (6S,9R)-N-(2,5-Difluoro-4-(6-methoxypyridin-3-yl)phenyl)-3-oxo-3,5,6,7,8,9-hexahydro-2H-6,9-epiminocyclohepta[c]pyridine-10-carboxamide] | < 0.5 | – |
| O=C(Nc1cc(Cl)c(Oc2ccc3nonc3c2)cc1F)N1[C@H]2CC[C@@H]1c1n[nH]c(=O)cc1C2 [Compound 294, (6S,9R)-N-(4-(Benzo[c][1,2,5]oxadiazol-5-yloxy)-5-chloro-2-fluorophenyl)-3-oxo-3,5,6,7,8,9-hexahydro-2H-6,9-epiminocyclohepta[c]pyridazine-10-carboxamide] | < 0.5 | – |
| COc1cncc(-c2cc(F)c(NC(=O)N3[C@H]4CC[C@@H]3c3n[nH]c(=O)cc3C4)cc2Cl)c1 [Compound 114, (6S,9R)—N-(5-Chloro-2-fluoro-4-(5-methoxypyridin-3-yl)phenyl)-3-oxo-3,5,6,7,8,9-hexahydro-2H-6,9-epiminocyclohepta[c]pyridazine-10-carboxamide] | < 0.5 | – |
| O=C(Nc1ccc(Cl)c(Br)c1)N1[C@@H]2CC[C@H]1c1n[nH]c(=O)cc1C2 [Compound 50, (6R,9S)-N-(3-Bromo-4-chlorophenyl)-3-oxo-3,5,6,7,8,9-hexahydro-2H-6,9-epiminocyclohepta[c]pyridazine-10-carboxamide] | – | > 5 |
| O=C(Nc1cc(Cl)c(-c2ccnc(F)c2)cc1F)N1[C@H]2CC[C@@H]1c1ccnc(F)c1C2 [Compound 268, (5R,8S)-N-(5-Chloro-2-fluoro-4-(2-fluoropyridin-4-yl)phenyl)-1-fluoro-6,7,8,9-tetrahydro-5H-5,8-epiminocyclohepta[c]pyridine-10-carboxamide] | < 0.5 | – |
| O=C(Nc1cc(Cl)c(-c2ccnc(F)c2)cc1F)N1[C@H]2CC[C@@H]1c1n[nH]c(=O)cc1C2 [Compound 266, (6S,9R)-N-(5-Chloro-2-fluoro-4-(2-fluoropyridin-4-yl)phenyl)-3-oxo-3,5,6,7,8,9-hexahydro-2H-6,9-epiminocyclohepta[c]pyridazine-10-carboxamide] | < 0.5 | – |
| O=C(Nc1cc(Cl)c(COc2ccc3nonc3c2)cc1F)N1[C@H]2CC[C@@H]1c1n[nH]c(=O)cc1C2 [Compound 302, (6S,9R)-N-(4-((Benzo[c][1,2,5]oxadiazol-5-yloxy)methyl)-5-chloro-2-fluorophenyl)-3-oxo-3,5,6,7,8,9-hexahydro-2H-6,9-epiminocyclohepta[c]pyridazine-10-carboxamide] | < 0.5 | – |
| C[C@@]12CC[C@@H](Cc3c1ccnc3F)N2C(=O)Nc1cc(Cl)c(Cl)cc1F [Compound 103, (5R,8S)-N-(4,5-Dichloro-2-fluorophenyl)-1-fluoro-5-methyl-6,7,8,9-tetrahydro-5H-5,8-epiminocyclohepta[c]pyridine-10-carboxamide] | < 0.5 | – |
| O=C(Nc1cc(C(F)(F)F)on1)N1C2CCC1c1n[nH]c(=O)cc1C2 (racemic) [Compound 44, (±)-3-Oxo-N-(5-(trifluoromethyl)isoxazole-3-yl)-3,5,6,7,8,9-hexahydro-2H-6,9-epiminocyclohepta[c]pyridazine-10-carboxamide] | < 0.5 | – |
| O=C(Nc1cc(Cl)c(-c2ccc3nonc3c2)cc1F)N1[C@H]2CC[C@@H]1C(F)(F)c1c2ccnc1F [Compound 329, (5S,8R)-N-(4-(Benzo[c][1,2,5]-oxadiazol-5-yl)-5-chloro-2-fluorophenyl)-1,9,9-trifluoro-6,7,8,9-tetrahydro-5H-5,8-epiminocyclohepta[c]pyridine-10-carboxamide] | 0.5 to 5 | – |
| COc1cc(-c2cc(F)c(NC(=O)N3[C@H]4CC[C@@H]3c3ccnc(F)c3C4)cc2Cl)ccn1 [Compound 264, (5R,8S)-N-(5-Chloro-2-fluoro-4-(2-methoxypyridin-4-yl)phenyl)-1-fluoro-6,7,8,9-tetrahydro-5H-5,8-epiminocyclohepta[c]pyridine-10-carboxamide] | < 0.5 | – |
| CO[C@H]1C[C@H](Oc2ccc(NC(=O)N3[C@H]4CC[C@@H]3c3ccnc(F)c3C4)cc2Cl)C1 [Compound 73, (5R,8S)-N-(3-Chloro-4-((1r,3R)-3-methoxycyclobutoxy)phenyl)-1-fluoro-6,7,8,9-tetrahydro-5H-5,8-epiminocyclohepta[c]pyridine-10-carboxamide] | 0.5 to 5 | – |
| O=C(Nc1cc(Cl)c(-c2ccc(OC(F)F)nc2)cc1F)N1[C@H]2CC[C@@H]1c1ccnc(F)c1C2 [Compound 324, (5R,8S)-N-(5-Chloro-4-(6-(difluoromethoxy)pyridin-3-yl)-2-fluorophenyl)-1-fluoro-6,7,8,9-tetrahydro-5H-5,8-epiminocyclohepta[c]pyridine-10-carboxamide] | < 0.5 | – |
| COCc1ccc(-c2cc(F)c(NC(=O)N3[C@H]4CC[C@@H]3c3n[nH]c(=O)cc3C4)cc2Cl)cn1 [Compound 278, (6S,9R)-N-(5-Chloro-2-fluoro-4-(6-(methoxymethyl)pyridin-3-yl)phenyl)-3-oxo-3,5,6,7,8,9-hexahydro-2H-6,9-epiminocyclohepta[c]pyridazine-10-carboxamide] | < 0.5 | – |
| CC(C)Oc1ccc(-c2cc(F)c(NC(=O)N3[C@H]4CC[C@@H]3c3n[nH]c(=O)cc3C4)cc2Cl)cn1 [Compound 209, (6S,9R)-N-(5-Chloro-2-fluoro-4-(6-isopropoxypyridin-3-yl)phenyl)-3-oxo-3,5,6,7,8,9-hexahydro-2H-6,9-epiminocyclohepta[c]pyridazine-10-carboxamide] | < 0.5 | – |
| CC(C)Oc1ccc(NC(=O)N2C3CCC2c2n[nH]c(=O)cc2C3)cc1Cl (racemic) [Compound 13, (±)-N-(3-Chloro-4-isopropoxyphenyl)-3-oxo-3,5,6,7,8,9-hexahydro-2H-6,9-epiminocyclohepta[c]pyridazine-10-carboxamide] | – | 0.5 to 5 |
| O=C(Nc1cc(Br)c(C(F)(F)F)cc1F)N1[C@H]2CC[C@@H]1c1n[nH]c(=O)cc1C2 [Compound 35, (6S,9R)-N-(5-Bromo-2-fluoro-4-(trifluoromethyl)phenyl)-3-oxo-3,5,6,7,8,9-hexahydro-2H-6,9-epiminocyclohepta[c]pyridazine-10-carboxamide] | < 0.5 | – |
| O=C(Nc1cc(Cl)c(-c2cncn2C2CCCCO2)cc1F)N1[C@H]2CC[C@@H]1c1n[nH]c(=O)cc1C2 (stereo partly drawn) [Compound 143, (6S,9R)-N-(5-Chloro-2-fluoro-4-(1-(tetrahydro-2H-pyran-2-yl)-1H-imidazol-5-yl)phenyl)-3-oxo-3,5,6,7,8,9-hexahydro-2H-6,9-epiminocyclohepta[c]pyridazine-10-carboxamide] | – | 0.5 to 5 |
| O=C(Nc1cc(Cl)c(-c2ccc3nonc3c2)cc1F)N1[C@H]2CC[C@@H]1c1c[nH]c(=O)cc1C2 [Compound 167, (6S,9R)-N-(4-(Benzo[c][1,2,5]oxadiazol-5-yl)-5-chloro-2-fluorophenyl)-3-oxo-3,5,6,7,8,9-hexahydro-2H-6,9-epiminocyclohepta[c]pyridine-10-carboxamide] | < 0.5 | – |
| O=C(Nc1cc(Cl)c(-c2ccc(OCC(F)(F)F)nc2)cc1F)N1C2CCC1C(F)(F)c1c2ccnc1F (racemic) [Compound 290, (±)-N-(5-Chloro-2-fluoro-4-(6-(2,2,2-trifluoroethoxy)pyridin-3-yl)phenyl)-1,9,9-trifluoro-6,7,8,9-tetrahydro-5H-5,8-epiminocyclohepta[c]pyridine-10-carboxamide] | < 0.5 | – |
| O=C(Nc1cc(Cl)c(COc2cncc(F)c2)cc1F)N1[C@H]2CC[C@@H]1c1n[nH]c(=O)cc1C2 [Compound 316, (6S,9R)-N-(5-Chloro-2-fluoro-4-(((5-fluoropyridin-3-yl)oxy)methyl)phenyl)-3-oxo-3,5,6,7,8,9-hexahydro-2H-6,9-epiminocyclohepta[c]pyridazine-10-carboxamide] | < 0.5 | – |
